Test results published in patent publication US20220381657A1, “METHOD FOR PREPARING BIOLOGICAL MATERIAL HAVING EXCELLENT LIGHT-TRANSMITTING PROPERTY” (RIKEN, priority 2016, published 2022).
Read-outs that look alike come from different tables or passages of the source.

Tests used:
[1] = test system: fixed brain tissue suspension; experiment: 1st delipidation assay: solubilization of fixed brain tissue suspension, turbidity at 600 nm; design: species or system mice
Description: Specifically, brains taken out of mice were sheared with a utility knife and then were disrupted by ultrasonication. To each of the resultant suspensions, an equal volume of 8% PFA solution was added to perform fixation at 4° C. for 1 hour. The resultant mixture was centrifuged to remove the supernatant, and the fixed brain tissue was washed with PBS for 3 times. PBS was added so as to obtain 2 mL of a fixed brain tissue suspension per brain. The fixed brain tissue suspension was diluted by 3.5 folds. To 20 μL of the resultant suspension, 130 μL of each 10 wt % chemical was added and was shaken at 37° C. overnight. Thus obtained mixed solutions were subjected to absorbance (turbidity) measurement at 600 nm. It is expected that a chemical solution which reduces the turbidity of a fixed brain suspension allows reducing light scattering by solubilizing lipids, which act as a scattering factor, in the brain tissue.

[2] = for 400 nm: OD at 400 nm of the chemical; for OD400: Table 1
bovine coagulated blood = experiment: Decoloring screening: heme eluted from bovine coagulated blood (OD420-OD700); conditions: decolorization; for 700 nm calibrated 420 nm Average: OD420 calibrated by OD700; for integrated value 500-700 nm Average: integrated absorbance 500-700 nm
Description: A high-throughput screening system for evaluating the decoloring ability of various compounds was constructed. The screening system involved adding an aqueous solution of each compound to bovine coagulated blood and then measuring the absorbance of heme collected in the supernatant.
Specifically, to bovine blood, an equal amount of 8% PFA solution was added, and reacted at 4° C. overnight. The mixed liquid was centrifuged at 1500×g for 5 minutes, and the supernatant containing PFA was discarded. Then, the same amount of PBS as the original volume of blood was added to prepare a coagulated blood sample. To 150 μL of 10 wt % aqueous solution of each compound, 50 μL of the coagulated blood sample was added, and reacted at 37° C. overnight. The reaction solution was centrifuged at 1500×g for 5 minutes, and then 100 μL of the supernatant was added to a plate so as to be subjected to absorbance measurement. A sample which is suspended in water instead of being dissolved in the water has a weak decoloring effect, but none the less has a high absorbance value. […]

[3] = Table 1, 10 wt % chemical, fixed mouse brain suspension, 37° C. overnight, PBS = 1.000

Molecule	1st delipidation assay Relative OD600 [1, 3]	400 nm [2]	OD400 [2]	pH (Table 1)	pH ([…])	700 nm calibrated 420 nm Average (bovine coagulated blood)	integrated value 500-700 nm Average (bovine coagulated blood)	Fluorescence quench Average (Serius; relative fluorescence)	1st delipidation assay Relative OD600 [1]	Fluorescence quench Average (Serius)
CC(C)NCCCN [#1027, N-Isopropyl-1,3-diaminopropane]	0.219	0.061	0.061	13.4	13.4	1.52	1.24	0.55	–	–
Cc1ccnc(C)c1 [#1312, 2,4-Lutidine]	0.325	0.051	0.051	7.6	7.6	2.47	2.59	0.84	–	–
CN(C)C(=N)N(C)C [#1444, 1,1,3,3-Tetramethylguanidine]	0.124	0.072	0.072	12.4	12.4	1.38	1.15	0.14	–	–
NCC1CCCC(CN)C1 (stereo not shown) [#0070, 1,3-Bis(aminomethyl) cyclohexane]	0.286	0.079	0.079	13.0	13.0	3.15	1.91	0.62	–	–
Dodecene-1 LAS [#0672]	–	–	–	–	–	1.45	1.41	–	0.152	1.08
OCC(O)c1ccccc1 (stereo not shown) [#1074, 1-Phenylethane-1,2-diol]	0.336	–	0.05	9.5	–	–	–	–	–	–
CCCCCCCCCS(=O)(=O)[O-].[Na+] [#0870, Sodium 1-nonanesulfonate]	0.247	–	0.047	6.8	–	–	–	–	–	–
CCCCCCCCCCS(=O)(=O)[O-].[Na+] [#0625, Sodium 1-decanesulfonate]	0.325	–	0.046	5.9	–	–	–	–	–	–
CCCCCCCCCCCC[N+](C)(C)C.[Cl-] [#1021, Dodecyltrimethyl- ammonium chloride]	0.194	–	–	–	–	1.96	1.70	–	–	1.11
CC(O)CN(CCN(CC(C)O)CC(C)O)CC(C)O (stereo not shown) [Quadrol ®, reference compound]	0.569	–	0.048	12.4	–	–	–	–	–	–
CCCCNCCN [#0422, N-Butylethylenediamine]	0.307	–	0.05	12.7	–	–	–	–	–	–
CCCCCCCCCC(=O)N(C)CC(=O)[O-].[Na+] [#0703, N-Decanoylsarcosine sodium salt]	0.223	–	0.047	7.0	–	–	–	–	–	–
